Data taken from patent publication US10001469B2, “Use of GPR83 to identify pruritus-related substances” (University of Miyazaki, priority 2010, dated 2018).
Entries after “also recorded” stand apart in the source; their conditions may differ. Non-standard residues stand in square brackets, D forms with d. No end group written: not given here.

Experiments:
[1] = tested on: SP-induced scratching behavior; details: pre-administration, Non-patent Documents 7 and 8; cited from earlier work
[2] = tested on: HK-1-induced scratching behavior; details: pre-administration, Non-patent Documents 7 and 8; cited from earlier work
[3] = tested on: intrathecally catheterized rats; details: depending on the concentrations of peptides administered, Non-patent Document 7; cited from earlier work
pain-related behavior = details: administered to a rat or a mouse; Non-patent Document 1; cited from earlier work
thermal hyperalgesia = details: intrathecal administration; Non-patent Documents 7, 9, 10, 11; cited from earlier work
[4] = tested on: SP-induced scratching behavior; assay: SP-induced scratching behavior after intrathecal pre-administration of peptide or siRNA; assay type: in vivo, rat
Method: In addition, the number of scratching events induced by SP administration at 5 minutes after saline administration was designated as a control, and was specifically designated as 100%.
In addition, the number of scratching events induced by SP administration at 5 minutes after saline administration was designated as a control and was specifically designated as 100%.
10^−3 M (10 nmol/10 μl) N-terminal regions (nSP and nHK-1) and the following peptides subjected to substitution were administered to intrathecally catheterized rats via catheters.
5 minutes after administration, the number of scratching events induced by administration of 10^−3 M (10 nmol/10 μl) SP was evaluated. In addition, the number of scratching events induced by administration of 10^−3 M SP at 5 minutes after saline administration was designated as a control and was specifically designated as 100%.
10^−3 M (10 nmol/10 μl) DTrp^2-nSP and DTrp^2-nHK-1 were administered to intrathecally catheterized rats via catheters, and then the number of scratching events induced by administration of 10^−3 M (10 nmol/10 μl) SP was evaluated. […] In addition, the number of scratching events induced by SP administration at 5 minutes after saline administration was designated as a control and was specifically designated as 100%.
siRNA was prepared using an HVJ Envelop Vector Kit (ISHIHARA SANGYO KAISHA, LTD) according to the protocols of the kit. 10 μl of an siRNA solution was administered to intrathecally catheterized rats via catheters. With administration of only HVJ-E and administration of mismatch siRNA as controls, time-course changes in scratching events resulting from SP or HK-1 were evaluated.
Next, NK1R siRNA was intrathecally administered and then SP was intrathecally administered on days 4, 7, 10, and 14. […] The number of SP-induced scratching events was gradually recovered after siRNA administration.

[5] = tested on: SP-induced scratching behavior; assay: as above; assay type: in vivo, rat; details: 5 minutes before SP
[6] = tested on: formalin-induced inflammatory pain; assay: Formalin-induced pain behavior (flinching) after intraplantar formalin; assay type: in vivo, rat; details: 10^−2 M (100 nmol/10 μl) peptide intrathecal 5 minutes before 2% formalin; for pain behavior (flinching events) during phase I: 0-10 minutes; for pain behavior (flinching events) during phase II: 10-60 minutes
Method: 10^−2 M (100 nmol/10 μl) nSP and nHK-1, or saline (10 μl) was administered to intrathecally catheterized rats via catheters, and then 5 minutes later, 50 μl of 2% formalin was administered subeutaneously to the hind paws of rats. The number of flinching events (pain behavior) was determined for a 60-minute period after formalin administration, so that the degree of pain was evaluated. During the 10-minute period after formalin administration (referred to as phase I), pain behavior was determined once every 2 minutes (1 minute per determination). During the period from 10 minutes to 60 minutes after formalin administration (referred to as phase 11), pain behavior was determined once every 5 minutes (1 minute per determination), so that the degree of pain was evaluated. During phase I, behavior (phasic pain) resulting from chemical stimulation accompanying formalin administration was observed. During phase II, […] following the phasic pain was observed.
The horizontal axis indicates time (minutes) after formalin administration and the vertical axis indicates the determined number of pain behavior events per minute.
4.5 mM (45 pmol/10 μl) GPR83 siRNA, 4.5 mM (45 pmol/10 μl) NK1R siRNA as target groups, 4.5 mM (45 pmol/10 μl) mismatch siRNA (MM siRNA: negative control), and 10 μl of HVJ-E (reagent for introduction of siRNA) were administered to intrathecally catheterized rats via catheters. On day 4 after administration, 50 μl of 2% formalin was administered subcutaneously to the hind paws of rats. The number of flinching events (pain behavior) was determined for a 60-minute period after formalin administration, so that the degree of pain was evaluated. During the 10-minute period after formalin administration (referred to as phase I), pain behavior was determined once every 2 minutes (1 minute per determination). During the period from 10 minutes to 60 minutes after formalin administration (referred to as phase II), pain behavior was determined once every 5 minutes (1 minute per determination), so that the degree of pain was evaluated. During phase I, behavior (phasic pain) resulting from chemical stimulation accompanying formalin administration was observed. During phase II, tonic pain following the phasic pain was observed.

[7] = tested on: intrathecally catheterized rats; assay: Scratching behavior after intrathecal administration of the peptide alone; assay type: in vivo, rat; details: 10^−3 M (10 nmol/10 μl) intrathecal
Method: 10^−3 M (10 nmol/10 μl) HK-1 and SP, the N-terminal regions (nHK-1 and nSP), and the C-terminal regions (cHK-1 and cSP) were administered to intrathecally catheterized rats via catheters. Ethological changes beginning immediately after administration were evaluated using the number of scratching events during a 5-minute period after each peptide administration as an indicator. Here, the expression “10^−3 M (10 nmol/10 μl) . . . administered” refers to administration of 10 μl (full dose) of a solution containing 10 nmol of a peptide (e.g., nHK-1) (that is, a 10^−3 M solution). The same applies to the following similar expressions. […] In these graphs, the number of scratching events induced by administration of 10^−3 M (10 nmol/10 μl) SP or HK-1 alone is designated as a control, and is specifically designated as 100%.

NK1R = NK1R (Homo sapiens, UniProt P25103); details: Non-patent Documents 4, 5, and 6; cited from earlier work
NK1R, sequence (P25103 whole entry, species assumed): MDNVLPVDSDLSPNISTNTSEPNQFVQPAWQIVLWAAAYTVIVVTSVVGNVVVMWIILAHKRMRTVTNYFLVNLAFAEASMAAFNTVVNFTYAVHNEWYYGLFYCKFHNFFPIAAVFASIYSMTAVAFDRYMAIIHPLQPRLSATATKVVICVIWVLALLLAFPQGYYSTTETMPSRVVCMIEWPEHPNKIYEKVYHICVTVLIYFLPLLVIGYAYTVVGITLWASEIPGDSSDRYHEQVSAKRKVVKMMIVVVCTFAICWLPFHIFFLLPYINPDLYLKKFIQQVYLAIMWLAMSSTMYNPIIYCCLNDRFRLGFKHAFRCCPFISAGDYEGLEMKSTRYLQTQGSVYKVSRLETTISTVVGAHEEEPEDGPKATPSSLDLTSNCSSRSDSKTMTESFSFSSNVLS

[8] = tested on: histamine-induced itching; assay: Histamine-induced itching behavior; assay type: in vivo, rat; details: for itching behavior resulting from histamine administration (scratching events, 20 minutes): 10^−2 M (100 nmol/10 μl) peptide intrathecal immediately before s.c. histamine, vs saline
Method: (§1) Immediately after intrathecal administration of 10^−2 M (100 nmol/10 μl) DTrp^2-nSP, DTrp^2-nHK-1, or saline (10 μl) to intrathecally catheterized rats via catheters, an itching inducer (10^−3 M histamine (0.25 mg/50 μl) or 1.13×10^−4 M 5-HT (0.25 mg/50 μl)) was subcutaneously administered to the nape of the neck, and then itching behavior was determined for 20 minutes, thereby evaluating the degree of itching.
(§2) FIG. 8 and FIG. 9 show itching behavior resulting from administration of histamine and 5-HT. The vertical axis indicates the determined number of scratching events for a 20-minute period after histamine and 5-HT administration. The horizontal axis indicates DTrp^2-nSP, DTrp^2-nHK-1, and saline administered.
(§3) 4.5 mM (45 pmol/10 μl) GPR83 siRNA, 4.5 mM (45 pmol/10 μl) NK1R siRNA as target groups, and 10 μl of HVJ-E (reagent for introduction of siRNA) were administered to intrathecally catheterized rats via catheters. On day 4 after administration, itching inducers (10^−3 M histamine (0.25 mg/50 μl) and 1.13×10^−4 M 5-HT (0.25 mg/50 μl)) were each subcutaneously administered to the nape of the neck, itching behavior was determined for a 20-minute period after administration, and thus the degree of itching was evaluated.
(§4) FIG. 15 and FIG. 16 show the results of observing itching behavior resulting from histamine administration and 5-HT administration. The vertical axis indicates the number of scratching events during a 20-minute period after administration of histamine and 5-HT, and the horizontal axis indicates HVJ-E (reagent for introduction of siRNA), GPR83 siRNA, and NK1R siRNA administered.

5-HT-induced itching = assay: Serotonin (5-HT)-induced itching behavior; assay type: in vivo, rat; details: for itching behavior resulting from 5-HT administration (scratching events, 20 minutes): 10^−2 M (100 nmol/10 μl) peptide intrathecal immediately before s.c. 5-HT, vs saline
Method: as §1, §2, §3, §4

[9] = 10^−3 M (10 nmol/10 μl) peptide intrathecal, administration interval 5 minutes before 10^−3 M SP
[10] = 10^−3 M peptide intrathecal, administration interval 10 minutes
[11] = 10^−3 M peptide intrathecal, administration interval 15 minutes
[12] = assumed in view of Examples 1 to 5, not tested
[13] = 10^−3 M peptide intrathecal, administration interval 20 minutes
[14] = 10^−3 M peptide intrathecal, administration interval 30 minutes

For `Ic1ccccc1CN[C@@H]1C2CCN(CC2)[C@@H]1C(c1ccccc1)c1ccccc1` (racemic) [L-703,606], the “suppression of SP-induced scratching behavior” value [1] is given as “suppressed” and the “suppression of HK-1-induced scratching behavior” value [2] is given as “suppressed”.
For “Arg-Pro-Lys-Pro-Gln-Gln-Phe-Phe-Gly-Leu-Met-NH2 (RPKPQQFFGLM-NH2; listed as Homo sapiens) [SP]”, the “induction of scratching behavior by intrathecal administration” value [3] is listed as “induces scratching behavior”, the “induction of pain-related behavior (e.g., scratching behavior)” value (pain-related behavior) is listed as “induces pain-related behavior” and the “induction of thermal hyperalgesia” value (thermal hyperalgesia) is listed as “induces thermal hyperalgesia”.
With “Arg-Pro-Lys-Pro-Gln-NH2 (RPKPQ-NH2) [nSP]” the “suppression of the number of SP-induced scratching events” value [4, 9] was “significantly suppress the number of scratching events; also recorded: an effect of suppressing the number of scratching events was exhibited significantly; also recorded: significant effects of suppressing SP-induced scratching behavior”, the “suppression of the number of SP-induced scratching events” value [4, 10] was “suppression effect was exhibited to a significant degree” and the “suppression of the number of SP-induced scratching events” value [4, 11] was “suppression effect disappeared”. For the same molecule, the “suppression of scratching behavior resulting from SP administration” value ([5]; 10^−4 M (1 nmol/10 μl) peptide intrathecal) was “suppressed scratching behavior resulting from SP administration”, the “suppression of scratching behavior resulting from SP administration” value ([5]; 10^−5 M (100 pmol/10 μl) peptide intrathecal) was “suppressed scratching behavior resulting from SP administration” and the “pain behavior (flinching events) during phase I” value [6] was “pain behavior decreased significantly”. For the same molecule, the “pain behavior (flinching events) during phase II” value [6] was “pain behavior decreased significantly” and the “scratching behavior on administration of the peptide alone (number of scratching events during a 5-minute period)” value [7] was “no scratching behavior”.
In the case of “Arg-Ser-Arg-Thr-Arg-Gln-Phe-Tyr-Gly-Leu-Met-NH2 (RSRTRQFYGLM-NH2; listed as Homo sapiens) [HK-1]”, the “induction of scratching behavior by intrathecal administration” value [3] is listed as “induces scratching behavior”, the “affinity for NK1R” value (NK1R) is listed as “high affinity” and the “induction of thermal hyperalgesia” value (thermal hyperalgesia) is listed as “no such reaction at all”.
For “Arg-Ser-Arg-Thr-Arg-NH2 (RSRTR-NH2) [nHK-1]”, the “suppression of the number of SP-induced scratching events” value [4, 9] was “significantly suppress the number of scratching events; also recorded: an effect of significantly suppressing scratching behavior; also recorded: significant effects of suppressing SP-induced scratching behavior”, the “suppression of the number of SP-induced scratching events” value [4, 10] was “suppression effect was exhibited to a significant degree” and the “suppression of the number of SP-induced scratching events” value [4, 11] was “suppression effect disappeared”. For the same molecule, the “suppression of histamine-induced itching (assumed)” value [8, 12] was “suppresses”, the “pain behavior (flinching events) during phase I” value [6] was “pain behavior decreased significantly” and the “pain behavior (flinching events) during phase II” value [6] was “pain behavior decreased significantly”. For the same molecule, the “scratching behavior on administration of the peptide alone (number of scratching events during a 5-minute period)” value [7] was “no scratching behavior” and the “suppression of 5-HT-induced itching (assumed)” value (5-HT-induced itching; [12]) was “suppresses”.
With R[dW]KPQ-NH2 [DTrp^2-nSP] the “suppression of the number of SP-induced scratching events” value [4, 9] was “significantly suppress the number of scratching events”, the “suppression of the number of SP-induced scratching events” value [4, 13] was “suppression effect was significantly exhibited; also recorded: maintained significant suppression effects” and the “suppression of the number of SP-induced scratching events” value [4, 14] was “suppression effect disappeared”. The “itching behavior resulting from histamine administration (scratching events, 20 minutes)” value [8] was “no difference was found in itching behavior” and the “itching behavior resulting from 5-HT administration (scratching events, 20 minutes)” value (5-HT-induced itching) was “no difference was found in the degree of itching behavior”.
In the case of R[dW]RTR-NH2 [DTrp^2-nHK-1], the “suppression of the number of SP-induced scratching events” value [4, 9] is reported as “significantly suppress the number of scratching events”, the “suppression of the number of SP-induced scratching events” value [4, 13] is reported as “suppression effect was significantly exhibited; also recorded: maintained significant suppression effects” and the “suppression of the number of SP-induced scratching events” value [4, 14] is reported as “suppression effect disappeared”. The “itching behavior resulting from histamine administration (scratching events, 20 minutes)” value [8] was “significantly lowered itching events” and the “itching behavior resulting from 5-HT administration (scratching events, 20 minutes)” value (5-HT-induced itching) was “significantly lowered the degree of itching behavior”.
